# PubChem BioAssay (NCI)
# Values joined by “and” are separate entries in the source; they are usually repeats but may differ in a detail not shown here. Equal values may be shown once.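 How tested: cells in 96-well plates exposed to compound for 48 hours at five concentrations. At the GI50, growth is halved. TGI denotes the concentration required for complete inhibition of growth.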
# Columns and labels:
# Experiment in all cases: NCI tumour cell line growth inhibition, 48 h
# CAKI-1 renal = test system: CAKI-1 renal
# HCT-116 colon = test system: HCT-116 colon
# HS 578T breast = test system: HS 578T breast
# NCI-H23 lung = test system: NCI-H23 lung
# NCI-H522 lung = test system: NCI-H522 lung
# OVCAR-4 ovarian = test system: OVCAR-4 ovarian
# SK-MEL-28 melanoma = test system: SK-MEL-28 melanoma
# SK-OV-3 ovarian = test system: SK-OV-3 ovarian
# SN12C renal = test system: SN12C renal
# U251 CNS = test system: U251 CNS
Structure (SMILES),GI50 (CAKI-1 renal),TGI (CAKI-1 renal) [µM],GI50 (HCT-116 colon),TGI (HCT-116 colon) [µM],GI50 (HS 578T breast) [µM],TGI (HS 578T breast) [µM],GI50 (NCI-H23 lung),TGI (NCI-H23 lung),GI50 (NCI-H522 lung) [µM],TGI (NCI-H522 lung) [µM],GI50 (OVCAR-4 ovarian) [µM],TGI (OVCAR-4 ovarian),GI50 (SK-MEL-28 melanoma),TGI (SK-MEL-28 melanoma),GI50 (SK-OV-3 ovarian),TGI (SK-OV-3 ovarian) [µM],GI50 (SN12C renal) [µM],TGI (SN12C renal) [µM],GI50 (U251 CNS),TGI (U251 CNS) [µM]
Cc1ccc(N=Nc2c(O)ccc3n[nH]nc23)cc1,4.63 µM,38.9,12.5 µM,> 100,10.9,58.4,5.65 µM,38.3 µM,10.1,45.5,9.3,> 100 µM,20.6 µM,> 100 µM,10.3 µM,> 100,17,> 100,11.4 µM,> 100
C=C1C(=O)O[C@@H]2CC(CO)=C([C@@H](C)CCCO)[C@@H](OC(=O)/C(C)=C\C)[C@H]12,,63.4,,26.5,,> 100,,38.8 µM,,15.3,,> 84.9 µM,,29.3 µM,,> 100,,43.5,,37.6
O=C(NNc1ccccc1)c1ccc(Cl)c(Cl)c1,,> 59.5,,> 100,,> 100,,> 100 µM,,23,,> 100 µM,,> 100 µM,,> 80.1,,> 100,,> 100
[Cl][Hg][c]1ccc2ccccc2c1,3.64 µM,6.97,3.18 µM,7.59,1.77,13.1,1.51 µM,3.95 µM,0.821,2.37,2.69,6.71 µM,1.6 µM,3.03 µM,3.87 µM,9.44,1.76,3.57,1.31 µM,2.68
CC(C)c1[nH]nc2c(NCc3ccc(-c4ccccn4)cc3)nc(SCCN)nc12,2.47 µM and 2.84 µM,14.8,0.0233 µM and 0.0196 µM,10.6,0.0151,,0.0212 µM and 0.0181 µM,0.797 µM and 0.0951 µM,0.00326,0.147,0.00585,0.394 µM and 1.41 µM,0.0197 µM and 0.0124 µM,0.171 µM and 0.239 µM,0.0433 µM and 0.0276 µM,11.4,0.0238,0.185,0.028 µM and 0.0205 µM,11.5
O=C1c2ccn(CCCNC(CO)(CO)CO)c2C(=O)c2c1c(O)c1ccccc1c2O,16.4 µM,47.1,1.9 µM,13.9,1.22,,15.2 µM,30.5 µM,12.9,46.6,29.2,> 51.2 µM,51.3 µM,> 100 µM,30.8 µM,96.6,3.16,17.9,15.2 µM,36.6
Cc1cc(N(CCC#N)CCC#N)ccc1/C=C(\NC(=O)/C=C/c1ccccc1)C(=O)Nc1ccc(Cl)cc1,,98,,> 100,,> 100,,> 100 µM,,> 100,,> 100 µM,,> 100 µM,,> 100,,> 100,,> 43.9
Cc1nn(Cc2ccccc2)cc1C(=O)Nc1sc2c(c1C(N)=O)CCC(=O)C2,1.42 µM,2.92,1.28 µM,4.33,2.51,9.71,2.52 µM,7.22 µM,1.25,5.25,1.47,3.45 µM,2.07 µM,4.29 µM,2.7 µM,9.22,2.61,7.74,2.62 µM,> 100
COc1c(-c2ccc3c(c2)OCO3)oc2cc(O)cc(O)c2c1=O,,86.4,,> 100,,53.3,,> 100 µM,,83.8,,95 µM,,> 100 µM,,85.4,,> 100,,> 100
OC(CN1CCCC2CCCCC21)c1cc2ccccc2c2ccccc12 (stereo not drawn),2.36 µM,8.15,1.29 µM,2.56,2.37,7.46,2.14 µM,7.14 µM,1.45,3.06,2.39,12.4 µM,2.06 µM,4.36 µM,3.16 µM,10.8,3.38,13.4,1.85 µM,3.77
Cn1c2c(c3ccccc3c1=O)C(=O)c1ccccc1-2,,> 100,,> 100,,> 100,,> 100 µM,,> 100,,> 100 µM,,> 100 µM,,> 100,,> 100,,> 100
CC1=CC(C)(C)Nc2ccc(Cc3ccc4c(c3)C(C)=CC(C)(C)N4)cc21,13 µM,> 100,8.69 µM,43.9,8.14,47.4,4.54 µM,> 100 µM,3.56,16.1,7.24,> 100 µM,20.3 µM,> 100 µM,17.7 µM,97.1,11.2,> 100,3.96 µM,> 100
CC(=O)c1ccc2c3c1[C@H]1O[C@H]1c1cccc(c1-3)[C@@H]1O[C@H]21,,2.67,,3.87,,4.95,,3.42 µM,,1.1,,3.59 µM,,5.96 µM,,16,,3.86,,4.3
CC(=O)O[C@@H]1C2=C(C)C3(CC3)[C@@](C)(O)C(=O)C2=C[C@@]1(C)CO,1.5 µM,13.3,0.424 µM,> 100,1.68,5.75,0.473 µM,2.66 µM,0.496,4.44,0.674,4.44 µM,1.98 µM,4.52 µM,1.55 µM,8.01,1.86,13.9,0.396 µM,> 36.1
COc1cc2c(NC3CCN(C(C)C)CC3)nc(C3CCCCC3)nc2cc1OCCCN1CCCC1,5.01 µM,11.2,3.08 µM,14.1,4.11,22.8,10.8 µM,25.5 µM,2.95,8.53,5.36,15.9 µM,1.72 µM,3.24 µM,9.57 µM,23.4,12,25.1,1.97 µM,5.11
